Test results from article PMC8213057, “Targeting ALK2: An Open Science Approach to Developing Therapeutics for the Treatment of Diffuse Intrinsic Pontine Glioma” (Journal of Medicinal Chemistry, 2020).

Columns and labels:
[1] = molecular target: T1, ALK3/BMPR1A (Homo sapiens, UniProt P36894); experiment: 375-member kinase panel; format: biochemical; details: Run 1, Run 2; for % enzyme activity: 1 μM; for remaining activity at 1 µM: read-out: % enzyme activity, 1 μM
T1 construct: purchased Reaction Biology Corporation
T1 sequence (P36894 24-532): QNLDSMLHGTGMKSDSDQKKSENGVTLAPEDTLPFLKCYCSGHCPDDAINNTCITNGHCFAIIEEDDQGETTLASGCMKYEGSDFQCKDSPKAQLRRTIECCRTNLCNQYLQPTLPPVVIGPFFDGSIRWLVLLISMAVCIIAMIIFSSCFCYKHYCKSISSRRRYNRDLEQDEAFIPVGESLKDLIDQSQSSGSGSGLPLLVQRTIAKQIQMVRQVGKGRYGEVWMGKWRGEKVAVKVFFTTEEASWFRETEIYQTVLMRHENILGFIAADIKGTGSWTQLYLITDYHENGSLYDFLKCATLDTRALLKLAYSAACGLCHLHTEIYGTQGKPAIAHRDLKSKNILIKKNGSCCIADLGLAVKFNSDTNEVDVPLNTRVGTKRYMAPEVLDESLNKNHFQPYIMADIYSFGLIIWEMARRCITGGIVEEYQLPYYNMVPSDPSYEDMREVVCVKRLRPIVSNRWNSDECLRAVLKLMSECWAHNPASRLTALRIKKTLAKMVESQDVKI

[2] = molecular target: T2, GRK1 (Homo sapiens, UniProt Q15835); details: 1 μM; Run 1, Run 2
T2 sequence (Q15835 1-563): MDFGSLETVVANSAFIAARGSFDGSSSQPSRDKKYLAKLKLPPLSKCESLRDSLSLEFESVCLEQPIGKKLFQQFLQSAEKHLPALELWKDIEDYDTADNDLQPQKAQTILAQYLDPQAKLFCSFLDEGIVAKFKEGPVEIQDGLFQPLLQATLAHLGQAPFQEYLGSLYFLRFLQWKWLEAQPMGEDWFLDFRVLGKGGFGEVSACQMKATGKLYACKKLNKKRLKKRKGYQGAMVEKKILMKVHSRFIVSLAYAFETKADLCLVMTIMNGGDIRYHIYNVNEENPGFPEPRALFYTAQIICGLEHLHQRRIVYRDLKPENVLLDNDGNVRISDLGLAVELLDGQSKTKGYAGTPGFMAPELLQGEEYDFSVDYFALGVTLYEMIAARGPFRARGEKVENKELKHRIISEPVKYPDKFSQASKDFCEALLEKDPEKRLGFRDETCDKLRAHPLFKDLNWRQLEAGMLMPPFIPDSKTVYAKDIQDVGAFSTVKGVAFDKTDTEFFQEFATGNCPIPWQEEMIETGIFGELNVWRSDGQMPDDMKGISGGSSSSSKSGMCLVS

[3] = molecular target: PIM3 (Homo sapiens, UniProt Q86V86); details: 1 μM; Run 1, Run 2
[4] = molecular target: T3, PKG2/PRKG2 (Homo sapiens, UniProt Q13237); details: 1 μM; Run 1, Run 2
T3 sequence (Q13237 1-762): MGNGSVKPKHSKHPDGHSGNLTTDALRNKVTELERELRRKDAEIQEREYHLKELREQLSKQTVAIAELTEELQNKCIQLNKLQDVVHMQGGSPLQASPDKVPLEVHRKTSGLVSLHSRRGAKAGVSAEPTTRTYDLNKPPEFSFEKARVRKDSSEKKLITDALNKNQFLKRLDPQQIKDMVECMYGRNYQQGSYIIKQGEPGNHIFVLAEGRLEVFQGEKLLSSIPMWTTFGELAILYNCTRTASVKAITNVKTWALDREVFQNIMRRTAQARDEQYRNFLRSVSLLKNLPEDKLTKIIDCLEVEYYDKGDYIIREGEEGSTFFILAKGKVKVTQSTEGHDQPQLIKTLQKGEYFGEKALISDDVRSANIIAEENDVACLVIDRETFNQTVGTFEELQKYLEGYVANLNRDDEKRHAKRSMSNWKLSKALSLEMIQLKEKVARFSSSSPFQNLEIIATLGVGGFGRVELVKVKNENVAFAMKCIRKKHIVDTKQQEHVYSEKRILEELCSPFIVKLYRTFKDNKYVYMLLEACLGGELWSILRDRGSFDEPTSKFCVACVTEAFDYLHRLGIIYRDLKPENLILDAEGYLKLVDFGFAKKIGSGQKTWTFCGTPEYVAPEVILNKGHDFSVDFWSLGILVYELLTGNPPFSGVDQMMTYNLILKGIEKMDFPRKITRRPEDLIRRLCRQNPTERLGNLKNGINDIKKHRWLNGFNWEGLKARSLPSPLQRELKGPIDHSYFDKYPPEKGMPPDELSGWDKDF

[5] = molecular target: T4, PKG1b (Homo sapiens, UniProt Q13976); experiment: biochemical; details: read-out: % enzyme activity, 1 μM; Run 1, Run 2
T4 sequence (Q13976 1-686 isoform Q13976-2): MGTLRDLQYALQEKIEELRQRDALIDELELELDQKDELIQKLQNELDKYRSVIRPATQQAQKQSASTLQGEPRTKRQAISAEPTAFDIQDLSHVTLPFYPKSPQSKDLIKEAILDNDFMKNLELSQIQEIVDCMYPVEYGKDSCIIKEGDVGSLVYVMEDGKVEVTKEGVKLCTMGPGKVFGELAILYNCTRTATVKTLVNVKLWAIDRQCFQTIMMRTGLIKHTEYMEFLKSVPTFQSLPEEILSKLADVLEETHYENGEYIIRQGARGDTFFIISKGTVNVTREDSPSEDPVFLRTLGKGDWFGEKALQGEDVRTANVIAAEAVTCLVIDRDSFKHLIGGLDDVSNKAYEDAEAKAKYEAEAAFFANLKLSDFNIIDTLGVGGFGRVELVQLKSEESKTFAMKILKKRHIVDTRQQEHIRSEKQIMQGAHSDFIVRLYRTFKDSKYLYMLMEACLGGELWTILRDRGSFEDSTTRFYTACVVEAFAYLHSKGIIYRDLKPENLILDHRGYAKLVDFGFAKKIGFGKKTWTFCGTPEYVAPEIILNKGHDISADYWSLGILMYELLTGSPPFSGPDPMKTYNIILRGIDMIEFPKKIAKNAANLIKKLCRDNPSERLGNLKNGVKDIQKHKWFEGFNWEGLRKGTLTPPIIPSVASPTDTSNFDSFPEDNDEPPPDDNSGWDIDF

| SMILES | % enzyme activity [1] [%] | remaining activity at 1 µM [1] [%] | % enzyme activity [2] [%] | % enzyme activity [3] [%] | % enzyme activity [4] [%] | remaining activity at 1 µM [5] [%] |
| --- | --- | --- | --- | --- | --- | --- |
| COc1cc(-c2cncc(-c3ccc(N4CCN(C)CC4)cc3)c2C)cc(F)c1C(N)=O [Compound 26a, 2-Fluoro-6-methoxy-4-(4-methyl-5-(4-(4-methylpiperazin-1-yl)phenyl)pyridin-3-yl)benzamide] | 40.21 | 38.4 | 93.15 | 99.10 | 97.48 | 102 |
| COc1cc(-c2cncc(-c3ccc(N4C[C@@H](C)N(C)[C@@H](C)C4)cc3)c2C)cc(F)c1C(N)=O [Compound 26c, 2-Fluoro-6-methoxy-4-(4-methyl-5-(4-((3R,5S)-3,4,5-trimethylpiperazin-1-yl)phenyl)pyridin-3-yl)benzamide] | 50.46 | 50 | 94.01 | 106.19 | 97.08 | 98.8 |
